Data from the NIST ThermoML archive (doi:10.1016/j.fluid.2014.09.017).
Values joined by “and” are separate entries in the source; they are usually repeats but may differ in a detail not shown here. Equal values may be shown once.

Conditions: for vapor or sublimation pressure: Liquid, Closed cell (Static) method; for speed of sound: Gas, Cylindrical cavity resonance method

CC(C)C [2-methylpropane]
Conditions | vapor or sublimation pressure
258.92 K | 91.82 kPa
264.24 K | 112.99 kPa
265.67 K | 119.32 kPa
267.2 K | 126.35 kPa
273 K | 156 kPa
273.15 K | 156.85 kPa
275.31 K | 169.22 kPa
278.94 K | 191.71 kPa
280 K | 198.68 kPa
281.24 K | 207.12 kPa
282.81 K | 218.08 kPa
284.02 K | 226.9 kPa
285.82 K | 240.51 kPa
287.25 K | 251.7 kPa
288.67 K | 263.24 kPa
290 K | 274.38 kPa
291.96 K | 291.5 kPa
291.99 K | 291.68 kPa
293.5 K | 305.47 kPa
294.79 K | 317.56 kPa
296.3 K | 332.18 kPa
299.97 K | 369.83 kPa
301.05 K | 381.52 kPa
302.76 K | 400.6 kPa
304.46 K | 420.14 kPa
305.97 K | 438.06 kPa and 438.12 kPa
307.39 K | 455.55 kPa
308.82 K | 473.64 kPa
310 K | 488.84 kPa
312.11 K | 516.99 kPa
314.51 K | 550.49 kPa
314.52 K | 550.72 kPa
316.61 K | 581.22 kPa
320 K | 633.44 kPa
322 K | 665.79 kPa
324.13 K | 701.6 kPa
326 K | 734.19 kPa and 734.22 kPa
326.58 K | 744.59 kPa
328 K | 770.36 kPa
328.63 K | 781.99 kPa
330 K | 807.67 kPa
332 K | 846.32 kPa
332.15 K | 849.38 kPa
334 K | 886.42 kPa
334.71 K | 900.88 kPa
338.87 K | 989.76 kPa
342 K | 1060.5 kPa
342.57 K | 1073.8 kPa
344 K | 1107.8 kPa
344.84 K | 1128.1 kPa
347.48 K | 1193.6 kPa
350 K | 1258.8 kPa
354.89 K | 1392.5 kPa
357.13 K | 1457.2 kPa
360 K | 1543.1 kPa
362.41 K | 1618.3 kPa
364.65 K | 1690.7 kPa
367.12 K | 1773.1 kPa
370 K | 1872.6 kPa
373.25 K | 1990.5 kPa
375.82 K | 2087.2 kPa
377.95 K | 2170.2 kPa
380 K | 2252.2 kPa
382.69 K | 2363.4 kPa
385.14 K | 2468.3 kPa
387.96 K | 2593.6 kPa
390 K | 2687.2 kPa
390.02 K | 2688.3 kPa
392.64 K | 2812.8 kPa
392.7 K | 2815.5 kPa
394.37 K | 2897.1 kPa
394.77 K | 2917.1 kPa
397.49 K | 3055 kPa
399.62 K | 3166.9 kPa
400 K | 3187.2 kPa
400.09 K | 3191.9 kPa
400.19 K | 3197.4 kPa
402.45 K | 3320.9 kPa
402.46 K | 3321.8 kPa
403.93 K | 3404.5 kPa
404.71 K | 3449.2 kPa
405 K | 3465.7 kPa
405.99 K | 3523.6 kPa

Conditions | speed of sound [m/s]
270 K, 54.63 kPa | 203.09
270 K, 68.26 kPa | 202.24
270 K, 75.99 kPa | 201.75
270 K, 86.24 kPa | 201.09
270 K, 94.7 kPa | 200.54
270 K, 103.06 kPa | 200
270 K, 111.76 kPa | 199.42
280 K, 52.41 kPa | 206.99
280 K, 62.45 kPa | 206.43
280 K, 70.73 kPa | 205.97
280 K, 82.68 kPa | 205.28
280 K, 94.96 kPa | 204.58
280 K, 108.81 kPa | 203.77
280 K, 121.29 kPa | 203.03
280 K, 133.05 kPa | 202.32
280 K, 145.5 kPa | 201.57
290 K, 58.49 kPa | 210.38
290 K, 78.62 kPa | 209.35
290 K, 97.12 kPa | 208.38
290 K, 116.17 kPa | 207.38
290 K, 139.15 kPa | 206.14
290 K, 147.23 kPa | 205.68
290 K, 158.57 kPa | 205.07
290 K, 161.39 kPa | 204.9
290 K, 173.83 kPa | 204.22
290 K, 177.47 kPa | 204
290 K, 193.67 kPa | 203.09
300 K, 37.47 kPa | 214.93
300 K, 57.39 kPa | 214.01
300 K, 80.89 kPa | 212.92
300 K, 107.72 kPa | 211.65
300 K, 127.82 kPa | 210.67
300 K, 150.12 kPa | 209.58
300 K, 168.57 kPa | 208.67
300 K, 201.3 kPa | 207
300 K, 235.37 kPa | 205.23
310 K, 45.64 kPa | 218.03
310 K, 76.78 kPa | 216.71
310 K, 107.37 kPa | 215.4
310 K, 141.66 kPa | 213.88
310 K, 178.43 kPa | 212.23
310 K, 212.65 kPa | 210.65
310 K, 247.33 kPa | 209.01
310 K, 299.72 kPa | 206.46
320 K, 57.93 kPa | 220.96
320 K, 83.1 kPa | 219.97
320 K, 109.17 kPa | 218.94
320 K, 159.3 kPa | 216.91
320 K, 192.01 kPa | 215.56
320 K, 262.64 kPa | 212.56
320 K, 289.64 kPa | 211.37
320 K, 343.58 kPa | 208.94
320 K, 383.31 kPa | 207.1
330 K, 39.62 kPa | 224.99
330 K, 69.47 kPa | 223.92
330 K, 107.25 kPa | 222.55
330 K, 151.31 kPa | 220.92
330 K, 195.14 kPa | 219.27
330 K, 246.95 kPa | 217.27
330 K, 297.38 kPa | 215.27
330 K, 339.74 kPa | 213.55
330 K, 422.84 kPa | 210.06
330 K, 480.1 kPa | 207.54
